Publication PMC8372404 (Frontiers in Neuroscience, 2021)
Like-named read-outs stand apart in the source and are kept apart here.

Key:
[1] = target: [3H]-LCGA-17 binding site in rat brain membranes (putative α2δ); test: [3H]-LCGA-17 radioligand competition binding assay
Danio rerio [2] = test: Light–dark box (LDB); assay type: in vivo; details: for LDB. Time spent in lit compartment, Median: 5 min session, exp group; for LDB, effect on time spent in the lit compartment vs vehicle: most informative dosage, Figure 2C
Experimental: (§1) Control groups were treated in parallel with vehicle alone. For drug injection, the fish were anesthetized briefly by placing them in 10°C water. The vehicle controls were tested in parallel.
(§2) Behavioral testing was initiated 10 min after drug injection, starting with the novel tank test (NTT), followed immediately thereafter by the light–dark box (LDB) and the social preference test (SPT). The NTT was adapted from [Maximino et al. (2013)] with the behavior video-recorded and the data processed using EthoVision XT14 (Noldus). The distance traveled, speed, number of visits to the bottom, middle and top thirds of the aquarium, respectively, and the times spent in each of these zones during the initial 5 min in the tank were recorded. A decreased time spent at the surface of the NTT apparatus reflects a reduction in exploratory behavior or increased hiding motivation ([Sackerman et al., 2010]). The behavior in the LDB ([Maximino et al., 2011]) and SPT ([Parker et al., 2014]) was video recorded and processed using RealTimer (Open Science LCC, Russia). The fish were added to the center zone of a three-zone aquarium and allowed to adapt for 1–2 min before removal of the septa separating the center from the flanking zones. The time spent and the number of visits to the light and dark flanking zones and the latency to enter the lit zone were recorded during a 5-min session. Stress of fish is associated with increased time spent in the dark compartment (scototaxis) ([Maximino et al., 2011]). For the SPT, the residence time and the number of visits to the three equally sized zones (near the shoal, in the center zone of the aquarium, and near the wall opposite to the shoal) were assessed during a 5-min session. Increased shoal preference (shoaling reflex) is thought to represent a protective response to a predator ([Nguyen et al., 2014]). All behavioral testing was done in the light phase using 500 lux (NTT, LDB) or 200 lux (SPT) illumination.

Danio rerio [3] = test: Novel tank test (NTT); assay type: in vivo; details: for NTT. Time spent in upper half of tank, Median: 10 min after injection, 5 min; for NTT. Time spent in upper half of tank, Median / NTT. Distance traveled, Median: exp group
Experimental: as §1, §2

Danio rerio [4] = test: Social preference test (SPT); assay type: in vivo; details: for SPT. Time spent out of shoaling zone, Median: 5 min session, exp group; for SPT, effect on time spent out of the shoaling zone vs vehicle: most informative dosage, Figure 2D
Experimental: as §1, §2

[5] = competition of [3H]-LCGA-17 (16 nM) binding, rat brain membranes, Table S1
[6] = rat brain membranes, result in words
[7] = competition of [3H]-LCGA-17 binding to rat brain (cortical) membranes, text and Figure 3

N[C@@H](CCC(=O)O)C(=O)O [Glutamate] was tested, and the IC50 [1, 5] was over 100 µM and the “cross-reactivity with / competition at the [3H]-LCGA-17 binding site” value (“cross-reactivity with / competition” for short) [1, 6] was “no cross-reactivity”.

In the case of CCCCCCN(CCCCCC)C(=O)Cc1c(-c2ccc(F)cc2)[nH]c2ccccc12 [FGIN-1-27], the “cross-reactivity with / competition” value [1] is reported as “distinct” and the IC50 [1, 5] is reported as over 100 µM.

For CCN1CCCC1CNC(=O)c1cc(S(N)(=O)=O)ccc1OC (stereo not shown) [Sulpiride], the IC50 [1, 5] was over 100 µM and the “cross-reactivity with / competition” value [1, 6] was “no cross-reactivity”.

In the case of NCc1cc(=O)[nH]o1 [Muscimol], the “cross-reactivity with / competition” value [1] is reported as “no cross-reactivity” and the IC50 [1, 5] is reported as over 100 µM.

COc1ccc(-c2ccc(=N)n(CCCC(=O)O)n2)cc1 [Gabazine] was tested, and the IC50 [1, 5] was over 100 µM and the “cross-reactivity with / competition” value [1, 6] was “no cross-reactivity”.

In the case of “AspLysThrGlu (DKTE; printed: AspLysThrGlu) [LCGA-26]”, the “LDB. Time spent in lit compartment, Median” value (“LDB. Time spent” below) (Danio rerio [2]; 1 mg/kg i.p.) is reported as 215 s, the “LDB. Time spent” value (Danio rerio [2]; 10 mg/kg) is reported as 243 s and the “NTT. Time spent in upper half of tank, Median” value (“NTT. Time spent in upper half” for short) (Danio rerio [3]; 1 mg/kg i.p.) is reported as 58 s. For the same molecule, the “NTT. Distance traveled, Median” value (Danio rerio [3]; 1 mg/kg i.p.) was 1365 cm, the “NTT. Time spent in upper half” value (Danio rerio [3]; 10 mg/kg) was 72 s and the “NTT. Distance traveled, Median” value (Danio rerio [3]; 10 mg/kg) was 1445 cm. For the same molecule, the “SPT. Time spent out of shoaling zone, Median” value (shortened to “SPT. Time spent out”) (Danio rerio [4]; 1 mg/kg i.p.) was 20 s and the “SPT. Time spent out” value (Danio rerio [4]; 10 mg/kg) was 27 s.

For COCCCC/C(=N\OCCN)c1ccc(C(F)(F)F)cc1 [fluvoxamine, Fluvoxamine], the “LDB. Time spent” value (Danio rerio [2]; 5 mg/kg) was 118 s, the “LDB. Time spent” value (Danio rerio [2]; 10 mg/kg) was 94 s and the “LDB, effect on time spent in the lit compartment vs vehicle” value (Danio rerio [2]) was “Neither fluvoxamine nor the other LCGA peptides affected the behavior”. For the same molecule, the “NTT. Time spent in upper half” value (Danio rerio [3]; 5 mg/kg) was 41 s, the “NTT. Distance traveled, Median” value (Danio rerio [3]; 5 mg/kg) was 1267 cm and the “NTT. Time spent in upper half” value (Danio rerio [3]; 10 mg/kg) was 32 s. The “NTT. Distance traveled, Median” value (Danio rerio [3]; 10 mg/kg) was 1313 cm, the “NTT, effect on time spent in the upper half of the tank vs vehicle” value (Danio rerio [3]; most informative dosage, Figure 2A: LCGA peptides 10 mg/kg, fluvoxamine 5 mg/kg, diazepam 5 mg/kg) was “anxiolytic-like effect” and the “SPT. Time spent out” value (Danio rerio [4]; 5 mg/kg) was 90 s. The “SPT. Time spent out” value (Danio rerio [4]; 10 mg/kg) was 84 s and the “SPT, effect on time spent out of the shoaling zone vs vehicle” value (Danio rerio [4]) was “failed to affect behavior”.

In the case of O=C(c1ccc(F)cc1)C1CCN(CCn2c(=O)[nH]c3ccccc3c2=O)CC1 [Ketanserin], the IC50 [1, 5] is reported as over 100 µM and the “cross-reactivity with / competition” value [1, 6] is reported as “no cross-reactivity”.

COc1ccc(-n2nc3c4ccccc4[nH]cc-3c2=O)cc1 [CGS-9895] was tested, and the IC50 [1, 5] was over 100 µM and the “cross-reactivity with / competition” value [1, 6] was “no cross-reactivity”.

With CC(C(O)c1ccc(O)cc1)N1CCC(Cc2ccccc2)CC1 (stereo not shown) [Ifenprodil] the IC50 [1, 5] was over 100 µM.

In the case of CCC(C)N(C)C(=O)c1cc2ccccc2c(-c2ccccc2Cl)n1 (stereo not shown) [PK-11195], the IC50 [1, 5] is reported as over 100 µM.

O=C(N/N=C/c1ccccc1O)c1ccccc1O [Salicylidene salicylhydrazide] was tested, and the “cross-reactivity with / competition” value [1] was “distinct” and the IC50 [1, 5] was over 100 µM.

In the case of “TrpAspGlnVal (WDQV; printed: TrpAspGlnVal) [LCGA-59]”, the “LDB. Time spent” value (Danio rerio [2]; 1 mg/kg i.p.) is reported as 74 s, the “LDB. Time spent” value (Danio rerio [2]; 10 mg/kg) is reported as 87 s and the “LDB, effect on time spent in the lit compartment vs vehicle” value (Danio rerio [2]) is reported as “Neither fluvoxamine (5 mg/kg) nor LCGA-59 and LCGA-83 (10 mg/kg) affected the behavior”. The “NTT. Time spent in upper half” value (Danio rerio [3]; 1 mg/kg i.p.) was 69 s, the “NTT. Distance traveled, Median” value (Danio rerio [3]; 1 mg/kg i.p.) was 1730 cm and the “NTT. Time spent in upper half” value (Danio rerio [3]; 10 mg/kg) was 74 s. For the same molecule, the “NTT. Distance traveled, Median” value (Danio rerio [3]; 10 mg/kg) was 1636 cm, the “SPT. Time spent out” value (Danio rerio [4]; 1 mg/kg i.p.) was 52 s and the “SPT. Time spent out” value (Danio rerio [4]; 10 mg/kg) was 88 s. For the same molecule, the “SPT, effect on time spent out of the shoaling zone vs vehicle” value (Danio rerio [4]) was “failed to affect behavior”.

NCC1(CC(=O)O)CCCCC1 [Gabapentin] showed an IC50 [1, 7] of about 11 µM and an IC50 ([1]; competition of [3H]-LCGA-17 binding to rat brain (cortical) membranes, text and Figure 3, listed as gabapentin) of 11 µM.

CC(=O)[C@H]1CC[C@H]2[C@@H]3CC[C@H]4C[C@H](O)CC[C@]4(C)[C@H]3CC[C@]12C [Allopregnanolone] was tested, and the IC50 [1] was over 100 µM and the “cross-reactivity with / competition” value [1] was “distinct”.

In the case of C[C@@H](CN1CCC(Cc2ccccc2)CC1)[C@@H](O)c1ccc(O)cc1 [Ro-256981], the IC50 [1, 5] is reported as over 100 µM and the “cross-reactivity with / competition” value [1, 6] is reported as “no cross-reactivity”.

O=C(O)C1=CCNCC1 [isoguvacine] was tested, and the “cross-reactivity with / competition” value [1, 6] was “distinct”.

For CC1(C)CC(=O)c2c(SCCO)sc(-c3nccs3)c2C1 [TB21007], the IC50 [1, 5] was over 100 µM and the “cross-reactivity with / competition” value [1, 6] was “distinct”.

In the case of CC(=O)[C@H]1CC[C@H]2[C@@H]3CC=C4C[C@@H](O)CC[C@]4(C)[C@H]3CC[C@]12C [Pregnenolone], the IC50 [1, 5] is reported as over 100 µM.

In the case of NCCCNCCCCNCCCN [Spermine], the IC50 [1, 5] is reported as over 100 µM and the “cross-reactivity with / competition” value [1, 6] is reported as “no cross-reactivity”.

Work on Fc1ccc(C(OCCN2CCN(CCCc3ccccc3)CC2)c2ccc(F)cc2)cc1 [GBR-12909] yielded an IC50 [1, 5] of over 100 µM.

With CCCN(CCC)C1CCc2ccc(O)cc2C1 (stereo not shown) [7-OH-DPAT] the “cross-reactivity with / competition” value [1] was “no cross-reactivity” and the IC50 [1, 5] was over 100 µM.

With O=C(CCCN1CCC(O)(c2ccc(Cl)cc2)CC1)c1ccc(F)cc1 [Haloperidol] the “cross-reactivity with / competition” value [1, 6] was “no cross-reactivity”.

In the case of N[C@@]1(C(=O)O)CC[C@H]2[C@H](C(=O)O)[C@H]21 [LY-354740], the IC50 [1, 5] is reported as over 100 µM and the “cross-reactivity with / competition” value [1, 6] is reported as “no cross-reactivity”.

NCC(=O)O [Glycine] was tested, and the IC50 [1] was over 100 µM and the “cross-reactivity with / competition” value [1] was “no cross-reactivity”.

C[C@]12CC[C@@H](O)C[C@H]1CC[C@@H]1[C@@H]2CC[C@]2(C)[C@@H](C(=O)CO)CC[C@@H]12 [THDOC] was tested, and the “cross-reactivity with / competition” value [1] was “distinct” and the IC50 [1, 5] was over 100 µM.

In the case of NC(N)=NCCCCN=C(N)N [Arcaine], the IC50 [1, 5] is reported as over 100 µM and the “cross-reactivity with / competition” value [1, 6] is reported as “no cross-reactivity”.

For Cn1c2ccc(F)cc2c2c(C(=O)N3CCCC3)cn(-c3ccccc3)c(=O)c21 [SL 651498], the IC50 [1, 5] was over 100 µM and the “cross-reactivity with / competition” value [1, 6] was “distinct”.

In the case of CC(C)(C)OC(=O)c1ncn2c1[C@@H]1CCCN1C(=O)c1c(Br)cccc1-2 [Bretazenil], the IC50 [1] is reported as over 100 µM and the “cross-reactivity with / competition” value [1] is reported as “distinct”.

O=C(CCCN1CCC2(CC1)C(=O)NCN2c1ccccc1)c1ccc(F)cc1 [Spiperone] was tested, and the “cross-reactivity with / competition” value [1, 6] was “no cross-reactivity”.

With NCC(CC(=O)O)c1ccc(Cl)cc1 (stereo not shown) [Baclofen] the IC50 [1, 5] was over 100 µM and the “cross-reactivity with / competition” value [1, 6] was “no cross-reactivity”.

Cn1ncnc1COc1nn2c(-c3c(F)cccc3F)nnc2cc1C1CCC1 [MK0343] was tested, and the IC50 [1, 5] was over 100 µM and the “cross-reactivity with / competition” value [1, 6] was “distinct”.

With CN1CCC[C@H]1c1cccnc1 [Nicotine] the IC50 [1] was over 100 µM and the “cross-reactivity with / competition” value [1] was “no cross-reactivity”.

Cc1ccc(-c2nc3ccc(C)cn3c2CC(=O)N(C)C)cc1 [Zolpidem] gave an IC50 [1] of over 100 µM.

NCCCC(=O)O [GABA, γ-aminobutyric acid] was tested, and the “cross-reactivity with / competition” value [1, 6] was “no cross-reactivity”.

For pregnenolone sulfate [PREGS], the IC50 [1, 7] was over 100 µM and the “cross-reactivity with / competition” value [1, 6] was “failed to compete”.

For Oc1noc2c1CCNC2 [Gaboxadol (THIP), Gaboxadol], the IC50 [1] was over 100 µM and the “cross-reactivity with / competition” value [1] was “distinct”.
